The text below walks through data of ChEMBL document CHEMBL1155818, “Uredinorubellins and caeruleoramularin, photodynamically active anthraquinone derivatives produced by two species of the genus ramularia” (J Nat Prod, 2008).

The species named for assay [1] is Oryctolagus cuniculus. As to the kind of experiment: Reduction of cell viability in rabbit HIG82 cells at 2 uM followed by illumination at 2.5 W/cm'2 cold light for 40 seconds by XTT assay. Format: functional, cell-based. Background: Tetrazolium dyes change colour on reduction, which living cells bring about.
Assay [2] relates to J774.A1. Nature of the assay: Reduction of cell viability in mouse J774A.1 cells at 2 uM followed by illumination at 2.5 W/cm'2 cold light for 40 seconds by XTT assay. It counts as functional, cell-based.
The next assay has as its system Pseudomonas aeruginosa. Nature of the assay: Antimicrobial activity against […] Pseudomonas aeruginosa DSM1117 on exposure to 2.5 W/cm'2 cold light for 40 secs at 1 to 100 uM. It counts as functional, organism-based.
Assay [3] deals with HT-29. As to the kind of experiment: Reduction of cell viability in human HT29 cells at 2 uM followed by illumination at 2.5 W/cm'2 cold light for 40 seconds by XTT assay. Format: functional, cell-based.
Assay [4] relates to HT-29. As to the kind of experiment: Reduction of cell viability in human HT29 cells at 10 uM followed by illumination at 2.5 W/cm'2 cold light for 40 seconds by XTT assay. It counts as functional, cell-based.
For assay [5], the species on record is Oryctolagus cuniculus. As to the kind of experiment: Reduction of cell viability in rabbit HIG82 cells at 10 uM followed by illumination at 2.5 W/cm'2 cold light for 40 seconds by XTT assay. Format: functional, cell-based.
The subject of assay [6] is J774.A1. Nature of the assay: Reduction of cell viability in mouse J774A.1 cells at 10 uM followed by illumination at 2.5 W/cm'2 cold light for 40 seconds by XTT assay. Format: functional, cell-based.

Molecules are shown by their SMILES. Activity calls are given as the source filed them. The calls are words filed in the database; no cut-off is given here.

For the molecule `Cc1cc(O)c2c(c1)C(=O)c1cccc(O)c1C2=O`, the result in the assay filed under Oryctolagus cuniculus [1], in the assay with J774.A1 [2] and with Pseudomonas aeruginosa was inactive.
As for `Cc1cc(O)c2c(c1)[C@H](O)[C@]13Cc4cc(O)c5c(c4[C@H]1C=C[C@@H](O)[C@@]3(O)C2=O)C(=O)c1c(O)ccc(O)c1C5=O`, the outcome with HT-29 [3] and in the assay with HT-29 [4] was Active. In addition, the outcome in the assay on Pseudomonas aeruginosa was inactive.
In the case of `Cc1cc(O)c2c(c1)[C@H](O)[C@]13Cc4cc(O)c5c(c4[C@H]1C=C[C@@H](O)[C@@]3(O)C2=O)C(=O)c1cccc(O)c1C5=O`, the outcome in the assay listed under Oryctolagus cuniculus [1], in the assay filed under Oryctolagus cuniculus [5], in the assay on J774.A1 [2] and in the assay with J774.A1 [6] was Active. Further, the result in the assay on Pseudomonas aeruginosa was inactive.
As for `Cc1cc(O)c2c(c1)[C@H](O)[C@]13Cc4cc(O)c5c(c4[C@H]1C=C[C@@H](O)[C@H]3OC2=O)C=C1C(=O)C=CC(O)=C1C5=O`, the result in the assay filed under Oryctolagus cuniculus [1], with J774.A1 [2] and in the assay with Pseudomonas aeruginosa was inactive.
